# Source: ChEMBL document CHEMBL5291721, “A preclinical secondary pharmacology resource illuminates target-adverse drug reaction associations of marketed drugs” (Nat Commun, 2023)
# Assays:
# [1] = target: T1, Peroxisome proliferator-activated receptor gamma (Homo sapiens, UniProt P37231); format: functional
# T1 sequence (P37231 whole entry): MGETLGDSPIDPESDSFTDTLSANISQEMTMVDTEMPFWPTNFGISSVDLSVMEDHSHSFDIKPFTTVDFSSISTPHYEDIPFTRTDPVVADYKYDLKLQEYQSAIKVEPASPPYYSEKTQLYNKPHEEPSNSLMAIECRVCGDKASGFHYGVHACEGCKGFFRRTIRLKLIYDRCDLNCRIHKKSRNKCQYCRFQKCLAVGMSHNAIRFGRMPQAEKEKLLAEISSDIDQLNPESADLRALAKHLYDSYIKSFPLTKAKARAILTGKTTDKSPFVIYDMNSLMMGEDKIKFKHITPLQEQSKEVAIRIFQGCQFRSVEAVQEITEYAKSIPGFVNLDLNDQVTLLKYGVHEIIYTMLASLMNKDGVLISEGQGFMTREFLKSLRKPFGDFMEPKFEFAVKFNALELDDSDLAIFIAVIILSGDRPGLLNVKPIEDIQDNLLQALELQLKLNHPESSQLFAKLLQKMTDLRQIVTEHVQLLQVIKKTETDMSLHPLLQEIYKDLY
# [2] = target: T1, Peroxisome proliferator-activated receptor gamma; format: functional; remark: listed apart in the source
# [3] = target: 5-hydroxytryptamine receptor 5A (Homo sapiens, UniProt P47898)
# Chain of 5-hydroxytryptamine receptor 5A (P47898 whole entry): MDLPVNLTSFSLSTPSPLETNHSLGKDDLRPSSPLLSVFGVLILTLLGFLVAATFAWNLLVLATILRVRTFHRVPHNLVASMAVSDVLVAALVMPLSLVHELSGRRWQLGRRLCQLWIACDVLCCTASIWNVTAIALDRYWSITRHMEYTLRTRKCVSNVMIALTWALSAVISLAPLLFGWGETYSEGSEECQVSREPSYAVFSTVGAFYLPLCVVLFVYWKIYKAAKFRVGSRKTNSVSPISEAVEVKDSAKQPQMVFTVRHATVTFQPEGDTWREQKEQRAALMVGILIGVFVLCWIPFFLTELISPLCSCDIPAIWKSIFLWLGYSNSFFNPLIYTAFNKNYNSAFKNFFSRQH
# [4] = target: Gamma-aminobutyric acid type B receptor subunit 1 (Homo sapiens, UniProt Q9UBS5)
# Chain of Gamma-aminobutyric acid type B receptor subunit 1 (Q9UBS5 whole entry): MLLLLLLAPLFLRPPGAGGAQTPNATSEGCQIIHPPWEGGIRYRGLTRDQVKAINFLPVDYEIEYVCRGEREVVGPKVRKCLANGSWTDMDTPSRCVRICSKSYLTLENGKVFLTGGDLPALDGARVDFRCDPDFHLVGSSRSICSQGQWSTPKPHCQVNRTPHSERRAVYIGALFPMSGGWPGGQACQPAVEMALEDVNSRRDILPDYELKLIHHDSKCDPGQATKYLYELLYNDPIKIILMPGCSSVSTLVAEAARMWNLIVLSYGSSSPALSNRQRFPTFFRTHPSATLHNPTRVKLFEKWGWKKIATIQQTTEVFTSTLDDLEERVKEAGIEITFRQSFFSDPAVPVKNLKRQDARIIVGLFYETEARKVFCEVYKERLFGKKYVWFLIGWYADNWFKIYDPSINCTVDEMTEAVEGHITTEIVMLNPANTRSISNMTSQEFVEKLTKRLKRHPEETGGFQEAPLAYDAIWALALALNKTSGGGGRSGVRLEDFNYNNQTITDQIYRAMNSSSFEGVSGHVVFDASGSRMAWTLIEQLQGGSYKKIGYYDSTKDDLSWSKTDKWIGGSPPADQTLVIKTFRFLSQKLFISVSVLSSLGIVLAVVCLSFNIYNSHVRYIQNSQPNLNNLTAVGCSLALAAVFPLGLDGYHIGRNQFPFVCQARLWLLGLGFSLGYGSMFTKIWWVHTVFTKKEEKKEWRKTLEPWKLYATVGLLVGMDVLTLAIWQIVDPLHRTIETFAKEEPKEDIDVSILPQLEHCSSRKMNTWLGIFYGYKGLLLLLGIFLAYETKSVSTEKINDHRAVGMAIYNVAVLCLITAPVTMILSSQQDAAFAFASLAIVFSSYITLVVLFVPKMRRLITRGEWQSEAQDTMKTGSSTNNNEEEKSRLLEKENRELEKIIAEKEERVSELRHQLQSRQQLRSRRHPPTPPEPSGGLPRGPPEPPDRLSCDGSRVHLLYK
# [5] = target: T2, D(4) dopamine receptor (Homo sapiens, UniProt P21917)
# T2 sequence (P21917 whole entry): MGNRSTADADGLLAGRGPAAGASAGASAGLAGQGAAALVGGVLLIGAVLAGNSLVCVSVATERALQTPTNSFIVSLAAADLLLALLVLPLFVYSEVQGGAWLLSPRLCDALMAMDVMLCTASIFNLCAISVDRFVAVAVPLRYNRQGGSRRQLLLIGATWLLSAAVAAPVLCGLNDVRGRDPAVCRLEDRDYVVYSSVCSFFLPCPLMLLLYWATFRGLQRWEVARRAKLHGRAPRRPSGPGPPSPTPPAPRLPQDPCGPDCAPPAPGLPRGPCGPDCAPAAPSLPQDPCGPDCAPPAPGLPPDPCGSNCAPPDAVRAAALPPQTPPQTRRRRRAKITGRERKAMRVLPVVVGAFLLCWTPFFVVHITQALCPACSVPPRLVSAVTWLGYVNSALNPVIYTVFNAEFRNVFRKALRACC
# [6] = target: Histamine H2 receptor (Homo sapiens, UniProt P25021)
# Chain of Histamine H2 receptor (P25021 whole entry): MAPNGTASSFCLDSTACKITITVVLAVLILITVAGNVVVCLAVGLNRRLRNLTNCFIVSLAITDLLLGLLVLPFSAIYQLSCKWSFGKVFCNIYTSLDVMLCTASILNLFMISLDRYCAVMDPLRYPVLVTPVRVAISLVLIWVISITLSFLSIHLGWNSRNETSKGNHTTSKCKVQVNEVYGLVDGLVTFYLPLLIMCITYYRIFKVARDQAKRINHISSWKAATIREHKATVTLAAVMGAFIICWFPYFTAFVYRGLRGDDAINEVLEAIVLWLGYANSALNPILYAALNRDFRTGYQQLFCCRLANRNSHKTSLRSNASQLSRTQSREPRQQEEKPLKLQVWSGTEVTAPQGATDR
# [7] = target: Hydroxycarboxylic acid receptor 2 (Homo sapiens, UniProt Q8TDS4)
# Chain of Hydroxycarboxylic acid receptor 2 (Q8TDS4 whole entry): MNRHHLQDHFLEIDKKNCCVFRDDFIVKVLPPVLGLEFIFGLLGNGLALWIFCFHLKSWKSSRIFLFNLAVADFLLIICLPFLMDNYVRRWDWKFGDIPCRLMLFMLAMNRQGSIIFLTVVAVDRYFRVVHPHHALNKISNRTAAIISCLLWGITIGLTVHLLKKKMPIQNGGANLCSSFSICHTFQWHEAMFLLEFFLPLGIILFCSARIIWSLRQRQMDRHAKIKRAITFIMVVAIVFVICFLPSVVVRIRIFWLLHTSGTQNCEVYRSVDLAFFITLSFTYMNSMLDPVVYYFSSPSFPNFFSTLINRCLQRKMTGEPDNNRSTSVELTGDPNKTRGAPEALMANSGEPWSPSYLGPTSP
# [8] = target: Beta-1 adrenergic receptor (Homo sapiens, UniProt P08588); format: functional, cell-based
# Chain of Beta-1 adrenergic receptor (P08588 whole entry): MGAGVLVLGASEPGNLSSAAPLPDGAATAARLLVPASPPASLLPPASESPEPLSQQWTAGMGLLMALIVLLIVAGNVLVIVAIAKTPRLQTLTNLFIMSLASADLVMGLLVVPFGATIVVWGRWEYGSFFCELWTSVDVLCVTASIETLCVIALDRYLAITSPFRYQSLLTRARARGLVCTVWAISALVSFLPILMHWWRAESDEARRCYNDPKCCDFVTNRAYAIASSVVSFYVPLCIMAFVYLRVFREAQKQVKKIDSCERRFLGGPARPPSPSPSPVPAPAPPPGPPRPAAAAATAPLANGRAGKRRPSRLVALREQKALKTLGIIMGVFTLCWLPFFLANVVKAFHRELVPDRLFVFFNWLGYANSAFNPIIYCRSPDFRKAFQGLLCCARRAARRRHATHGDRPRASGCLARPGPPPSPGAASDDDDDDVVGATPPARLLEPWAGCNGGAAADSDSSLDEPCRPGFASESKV
# [9] = target: T3, Type-2 angiotensin II receptor (Homo sapiens, UniProt P50052); format: functional
# T3 sequence (P50052 whole entry): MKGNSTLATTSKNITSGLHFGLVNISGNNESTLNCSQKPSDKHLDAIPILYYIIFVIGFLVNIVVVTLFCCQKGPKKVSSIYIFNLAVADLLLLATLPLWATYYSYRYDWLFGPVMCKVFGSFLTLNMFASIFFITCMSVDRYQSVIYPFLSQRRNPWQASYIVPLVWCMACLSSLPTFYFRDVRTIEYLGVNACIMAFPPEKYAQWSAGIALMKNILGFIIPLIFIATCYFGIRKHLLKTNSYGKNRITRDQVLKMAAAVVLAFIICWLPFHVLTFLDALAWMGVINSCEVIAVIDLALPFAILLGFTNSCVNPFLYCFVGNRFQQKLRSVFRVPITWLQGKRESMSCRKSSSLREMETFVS
# [10] = target: D(1A) dopamine receptor (Homo sapiens, UniProt P21728); format: functional, cell-based
# Chain of D(1A) dopamine receptor (P21728 whole entry): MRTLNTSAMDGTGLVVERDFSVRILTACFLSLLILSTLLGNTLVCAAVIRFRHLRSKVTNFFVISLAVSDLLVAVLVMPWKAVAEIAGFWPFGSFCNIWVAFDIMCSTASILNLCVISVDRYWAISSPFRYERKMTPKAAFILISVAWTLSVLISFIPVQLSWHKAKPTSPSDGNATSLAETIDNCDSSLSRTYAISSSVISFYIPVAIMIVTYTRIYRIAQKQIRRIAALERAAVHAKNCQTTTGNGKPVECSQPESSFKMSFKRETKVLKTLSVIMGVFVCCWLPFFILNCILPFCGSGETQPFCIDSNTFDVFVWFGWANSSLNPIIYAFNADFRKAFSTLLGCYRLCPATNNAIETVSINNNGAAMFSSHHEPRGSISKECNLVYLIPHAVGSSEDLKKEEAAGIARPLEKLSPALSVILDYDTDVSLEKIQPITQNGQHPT
# [11] = target: T4, Androgen receptor (Rattus norvegicus, UniProt P15207)
# T4 sequence (P15207 whole entry): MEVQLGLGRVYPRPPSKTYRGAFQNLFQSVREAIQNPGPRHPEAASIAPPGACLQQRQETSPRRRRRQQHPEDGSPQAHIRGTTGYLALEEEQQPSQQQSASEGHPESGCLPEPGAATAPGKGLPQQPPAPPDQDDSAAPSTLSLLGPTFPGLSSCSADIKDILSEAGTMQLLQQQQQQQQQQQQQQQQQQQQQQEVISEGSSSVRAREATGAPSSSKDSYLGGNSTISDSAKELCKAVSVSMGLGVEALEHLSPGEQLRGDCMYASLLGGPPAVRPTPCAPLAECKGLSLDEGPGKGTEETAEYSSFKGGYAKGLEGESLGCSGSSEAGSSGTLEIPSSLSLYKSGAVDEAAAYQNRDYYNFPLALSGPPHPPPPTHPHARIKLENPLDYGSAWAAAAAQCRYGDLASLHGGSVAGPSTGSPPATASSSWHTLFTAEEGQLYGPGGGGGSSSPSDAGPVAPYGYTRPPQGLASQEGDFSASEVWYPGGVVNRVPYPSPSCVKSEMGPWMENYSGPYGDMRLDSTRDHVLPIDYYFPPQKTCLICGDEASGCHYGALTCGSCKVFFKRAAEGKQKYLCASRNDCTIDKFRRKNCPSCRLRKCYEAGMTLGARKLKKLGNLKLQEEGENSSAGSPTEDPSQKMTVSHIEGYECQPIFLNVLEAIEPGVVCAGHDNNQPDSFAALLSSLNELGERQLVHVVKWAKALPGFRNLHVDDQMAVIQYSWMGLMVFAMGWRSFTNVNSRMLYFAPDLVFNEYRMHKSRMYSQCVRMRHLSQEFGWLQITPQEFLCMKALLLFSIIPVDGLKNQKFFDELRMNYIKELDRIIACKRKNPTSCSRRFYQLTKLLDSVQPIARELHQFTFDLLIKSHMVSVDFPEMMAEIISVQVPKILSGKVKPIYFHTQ
# [12] = target: Cannabinoid receptor 1 (Homo sapiens, UniProt P21554); format: functional
# Chain of Cannabinoid receptor 1 (P21554 whole entry): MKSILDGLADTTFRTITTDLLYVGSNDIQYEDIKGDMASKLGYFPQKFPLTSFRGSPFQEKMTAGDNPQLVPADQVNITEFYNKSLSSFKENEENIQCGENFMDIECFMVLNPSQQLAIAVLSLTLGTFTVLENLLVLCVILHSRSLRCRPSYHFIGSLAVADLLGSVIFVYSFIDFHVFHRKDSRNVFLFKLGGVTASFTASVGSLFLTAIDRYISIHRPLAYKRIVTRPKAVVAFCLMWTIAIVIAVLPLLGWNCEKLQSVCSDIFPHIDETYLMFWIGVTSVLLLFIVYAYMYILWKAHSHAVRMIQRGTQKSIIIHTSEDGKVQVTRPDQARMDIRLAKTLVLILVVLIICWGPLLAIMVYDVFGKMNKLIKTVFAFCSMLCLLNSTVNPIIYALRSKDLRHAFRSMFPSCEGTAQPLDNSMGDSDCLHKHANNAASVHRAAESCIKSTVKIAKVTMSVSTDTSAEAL
# Note: assay procedure not described here.
structure (smiles),measurement,setting,value
CCC(CC)(CC(=O)Nc1cccc(/C=C/c2nc(C3CCC3)cs2)c1)C(=O)O,AC50,[1],> 30 µM
same,AC50,[2],> 30 µM
CCCCCNC(=N)N/N=C/c1c[nH]c2ccc(OC)cc12 [TEGASEROD],AC50,[3],0.19 µM
same,AC50,[1],> 30 µM
same,AC50,[2],> 30 µM
same,AC50,[4],> 10 µM
same,AC50,[5],0.657 µM
O=[N+]([O-])O[C@@H]1CO[C@H]2[C@@H]1OC[C@@H]2O [ISOSORBIDE MONONITRATE],AC50,[6],> 10 µM
same,AC50,[7],> 10 µM
same,AC50,[5],> 10 µM
CN(C)CC/C=C1\c2ccccc2CSc2ccccc21 [DOTHIEPIN],AC50,[8],> 30 µM
CC[C@@H](C(N)=O)N1CCCC1=O,AC50,[1],> 30 µM
same,AC50,[2],> 30 µM
CCN1CCCC1CNC(=O)c1cc(S(N)(=O)=O)ccc1OC (stereo unspecified) [SULPIRIDE],AC50,[9],> 100 µM
CC(=O)c1ccc2c(c1)N(CCCN(C)C)c1ccccc1S2 [ACEPROMAZINE],AC50,[10],1.4 µM
COc1cc2nc(N3CCN(C(=O)c4ccco4)CC3)nc(N)c2cc1OC [PRAZOSIN],AC50,[9],> 100 µM
same,AC50,[5],> 10 µM
COc1ccccc1N1CCN(CC(O)COc2cccc3ccccc23)CC1 (stereo unspecified) [NAFTOPIDIL],AC50,[8],> 30 µM
CCOc1ccc(Cc2cc([C@@H]3O[C@H](CO)[C@@H](O)[C@H](O)[C@H]3O)ccc2Cl)cc1 [DAPAGLIFLOZIN],AC50,[11],> 30 µM
same,AC50,[6],> 10 µM
COc1ccc(C(=O)Nc2ccccc2CCC2CCCCN2C)cc1 (stereo unspecified) [ENCAINIDE],AC50,[6],16.2 µM
same,AC50,[7],> 10 µM
same,AC50,[5],> 10 µM
O=[N+]([O-])c1cn2c(n1)OC[C@@H](OCc1ccc(OC(F)(F)F)cc1)C2 [PRETOMANID],AC50,[12],> 10 µM
same,AC50,[6],> 10 µM
CCOc1ccccc1OCC1CNCCO1 (stereo unspecified) [VILOXAZINE],AC50,[11],> 30 µM
same,AC50,[12],> 10 µM
same,AC50,[3],> 10 µM
same,AC50,[9],> 100 µM
same,AC50,[6],> 10 µM
same,AC50,[4],> 10 µM
same,AC50,[5],> 10 µM
CCOC(=O)/C=C1\SC(N2CCCCC2)C(=O)N1C (stereo unspecified) [ETOZOLIN],AC50,[9],> 100 µM
C=CCN1C[C@H](C(=O)N(CCCN(C)C)C(=O)NCC)C[C@@H]2c3cccc4[nH]cc(c34)C[C@H]21 [CABERGOLINE],AC50,[10],> 30 µM
CC[C@H]1CN2CCc3cc(OC)c(OC)cc3[C@@H]2C[C@@H]1C[C@H]1NCCc2cc(OC)c(OC)cc21 [EMETINE],AC50,[1],> 30 µM
same,AC50,[2],> 30 µM
